This is an account of results in patent US8680097B2, “Benzothiophene alkanol piperazine derivatives and their use as antidepressant” (CSPC Zhongqi Pharmaceutical Technology (Shijiazhuang) Co. …, priority 2008, dated 2014).

Structures are written as SMILES. Like-named read-outs stand apart in the source and are kept apart here.

Series [1] deals with uptake of DA by brain synaptosomes. Kind of series: [3H]DA reuptake by rat brain synaptosomes. The class given is biochemical. Conditions: for inhibition effect on the uptake of DA: rat corpus striatum synaptosomes, control drugs and tested substances all 0.1 mmol/L (method and b297 say 10 μmol/L), inhibition rate; for inhibition activity on the reuptake of DA (in words): at the concentration of 10 μmol/L.

Series [2] deals with uptake of 5-HT by brain synaptosomes. Kind of series: [3H]5-HT reuptake by rat brain synaptosomes. It counts as biochemical. Conditions: at the concentration of 10 μmol/L.
A further series deals with mice. Nature of the series: Acute toxicity, LD50 single-fed. The class given is in vivo. To be noted: statistics of Bliss. On the procedure:
Initial screening was performed by the method reported in “Modern Pharmacological Experiments Mothods” edited by Zhang Juntian.

Series [3] concerns histidine auxotrophic mutant strains of Salmonella TA97, TA98, TA100 and TA102. It counts as cell-based. From the text: 4. Bacterial reverse mutation test for VII-10.
Bacterium: histidine auxotrophic mutant strains of Salmonella TA97, TA98, TA100 and TA102
Experimental method: the method reported in the literature: Maron D M et al: (1983) Mutay Res. 113, 173-216.
Results: The experiment included two parts: −S9 and +S9. […] The other dosages had no bacteriostatic effect for all the strains, with a well growing background. […] Ames test result was negative.

The test system of series [4] is uptake of NA by brain synaptosomes. Kind of series: [3H]NA reuptake by rat brain synaptosomes. The class given is biochemical. Conditions: at the concentration of 10 μmol/L.
The nature of series [5]: Forced Swimming Test in Learned Helplessness Experiment. It counts as in vivo. From the text: 2. Results of in vivo antidepression of compound VII-10

As to `CC(C(O)c1csc2ccccc12)N1CCN(Cc2ccccc2)CC1` (single isomer, unassigned) [VII-4, N^1-benzyl-N^4-[1-methyl-2-hydroxy-2-(benzo[b]thiophene-3-yl)]ethylpiperazine (threo isomer)], in series [1], the “inhibition effect on the uptake of DA” value turned out to be 14.5 ± 10.0.

With `CC(C(O)c1csc2ccccc12)N1CCN(Cc2ccccc2)CC1` (single isomer, unassigned) [VII-5, N^1-benzyl-N^4-[1-methyl-2-hydroxy-2-(benzo[b]thiophene-3-yl)]ethylpiperazine (erythro isomer)], the “inhibition effect on the uptake of DA” value in series [1] amounted to 11.4 ± 11.5.

`Clc1ccc([C@]23CNC[C@H]2C3)cc1Cl` [DOV 21947, reference compound]: the “inhibition effect on the uptake of DA” value in series [1] is given as 104.1 ± 4.2 ^.

Consider `Cl.OC(CCN1CCN(Cc2ccccc2)CC1)c1csc2ccccc12` (stereo not drawn) [VII-10, N^1-benzyl-N^4-[3-hydroxy-3-(benzo[b]thiophene-3-yl)]propylpiperazine hydrochloride], for which the “inhibition activity on the reuptake of 5-HT (in words)” value in series [2] is recorded as “stronger inhibition activity”. Also, the LD50 in the series on mice is 1100 mg/kg. In addition, the Ames test result in series [3] (TA97, TA98, TA100, TA102, −S9 and +S9) is listed as “negative”. For the same compound, the “dose showing bacteriostatic effect” value in series [3] (TA97 in +S9 test system) and in series [3] (TA98 in −S9 test system) was 5000 μg per culture dish in each case. Besides, the “number of reverse mutation colonies” value in series [3] (all dosages tested, both −S9 and +S9 test systems) is “no significant increase”. Also, the “inhibition activity on the reuptake of NA (in words)” value in series [4] is listed as “stronger inhibition activity”. Besides, the “inhibition activity on the reuptake of DA (in words)” value in series [1] is “stronger inhibition activity”. The “inhibition effect on the uptake of DA” value in series [1] stood at 78.0 ± 8.0. Also, the “effect on immobility time in swimming (in words)” value in series [5] is listed as “significantly reduce the immobility time”. The “immobility time” value was 90.7 ± 46.3 s in series [5] (dosage 6.35 mg/kg); 87.5 ± 35.7 s in series [5] (dosage 12.7 mg/kg); 84 ± 48.9 s in series [5] (dosage 25.4 mg/kg, hydrochloride).

Regarding `Cl.OC(CCN1CCN(CC=Cc2ccccc2)CC1)c1csc2ccccc12` (stereo not drawn) [VII-11, N^1-cinnamyl-N^4-[3-hydroxy-3-(benzo[b]thiophene-3-yl)]propylpiperazine hydrochloride], the “inhibition activity on the reuptake of 5-HT (in words)” value in series [2] is listed as “stronger inhibition activity”. In addition, in series [4], the “inhibition activity on the reuptake of NA (in words)” value was “stronger inhibition activity”. In series [1], the “inhibition activity on the reuptake of DA (in words)” value was “stronger inhibition activity” and the “inhibition effect on the uptake of DA” value stood at 97.9 ± 1.1.

Turning to `CC(c1ccccc1)N1CCN(CCC(O)c2csc3ccccc23)CC1.Cl` (stereo not drawn) [VII-12, N^1-α-phenethyl-N^4-[3-hydroxy-3-(benzo[b]thiophene-3-yl)]propylpiperazine hydrochloride], the “inhibition activity on the reuptake of 5-HT (in words)” value in series [2] is reported as “stronger inhibition activity”. The “inhibition activity on the reuptake of NA (in words)” value in series [4] is given as “stronger inhibition activity”. In series [1], the “inhibition activity on the reuptake of DA (in words)” value was “stronger inhibition activity” and the “inhibition effect on the uptake of DA” value is 98.0 ± 1.5.

As for `Cl.OC(CCN1CCN(C(c2ccccc2)c2ccccc2)CC1)c1csc2ccccc12` (stereo not drawn) [VII-14, N^1-benzhydryl-N^4-[3-hydroxy-3-(benzo[b]thiophene-3-yl)]propylpiperazine hydrochloride], the “inhibition activity on the reuptake of 5-HT (in words)” value in series [2] is given as “stronger inhibition activity”. In series [4], the “inhibition activity on the reuptake of NA (in words)” value is reported as “stronger inhibition activity”. In series [1], the “inhibition activity on the reuptake of DA (in words)” value is reported as “stronger inhibition activity” and the “inhibition effect on the uptake of DA” value was 87.3 ± 4.3.

For `Cl.OC(CCN1CCN(CCOC(c2ccc(F)cc2)c2ccc(F)cc2)CC1)c1csc2ccccc12` (stereo not drawn) [VII-15], the “inhibition activity on the reuptake of 5-HT (in words)” value in series [2] is reported as “stronger inhibition activity”. Also, in series [4], the “inhibition activity on the reuptake of NA (in words)” value was “stronger inhibition activity”. Besides, in series [1], the “inhibition activity on the reuptake of DA (in words)” value is recorded as “stronger inhibition activity” and the “inhibition effect on the uptake of DA” value is recorded as 102.2 ± 1.3 ^.

`COc1ccc(C(CN(C)C)C2(O)CCCCC2)cc1` (stereo not drawn) [Venlafaxine, reference compound]: the “inhibition effect on the uptake of DA” value in series [1] was 48.6 ± 4.1 ^. In addition, the “immobility time” value amounted to 57.1 ± 37.8 s in series [5] (dosage 4.56 mg/kg), 77.4 ± 47.2 s in series [5] (dosage 9.12 mg/kg) and 80.8 ± 46.8 s in series [5] (dosage 18.24 mg/kg).

What is called LD50 is the dose at which mortality reaches 50%. A lower LD50 goes with a more toxic substance.
